Assay results from PubChem BioAssay (NCI).
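Briefly, cells in 96-well plates were exposed to five compound concentrations for 48 h, and endpoints were estimated by linear interpolation. Abbreviation: GI50, concentration required for 50% inhibition of growth. TGI marks complete inhibition of growth.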

How the values were obtained:
Assay in all cases: NCI-60 cell line screen, 48 h
[1] = test system: 786-0 renal
[2] = test system: A498 renal
[3] = test system: A549 NSCLC
[4] = test system: ACHN renal
[5] = test system: CAKI-1 renal
[6] = test system: CCRF-CEM leukemia
[7] = test system: COLO 205 colon
[8] = test system: DU-145 prostate
[9] = test system: EKVX NSCLC
[10] = test system: HCC-2998 colon
[11] = test system: HCT-15 colon
[12] = test system: HL-60(TB) leukemia
[13] = test system: HOP-62 NSCLC
[14] = test system: HS 578T breast
[15] = test system: HT29 colon
[16] = test system: IGROV1 ovarian
[17] = test system: K-562 leukemia
[18] = test system: KM12 colon
[19] = test system: LOX IMVI melanoma
[20] = test system: M14 melanoma
[21] = test system: MALME-3M melanoma
[22] = test system: MCF7 breast
[23] = test system: MDA-MB-231 breast
[24] = test system: MDA-MB-435
[25] = test system: MOLT-4 leukemia
[26] = test system: NCI-H226 lung
[27] = test system: NCI-H23 lung
[28] = test system: NCI-H460 lung
[29] = test system: NCI-H522 lung
[30] = test system: NCI/ADR-RES ovarian
[31] = test system: OVCAR-3 ovarian
[32] = test system: OVCAR-4 ovarian
[33] = test system: OVCAR-5 ovarian
[34] = test system: OVCAR-8 ovarian
[35] = test system: PC-3 prostate
[36] = test system: RPMI-8226 leukemia
[37] = test system: RXF 393 renal
[38] = test system: SF-268 CNS
[39] = test system: SF-295 CNS
[40] = test system: SK-MEL-2 melanoma
[41] = test system: SK-MEL-28 melanoma
[42] = test system: SK-MEL-5 melanoma
[43] = test system: SN12C renal
[44] = test system: SNB-19 CNS
[45] = test system: SNB-75 CNS
[46] = test system: SR leukemia
[47] = test system: SW-620 colon
[48] = test system: T-47D breast
[49] = test system: TK-10 renal
[50] = test system: U251 CNS
[51] = test system: UACC-62 melanoma
[52] = test system: UO-31 renal
[53] = test system: BT-549 breast
[54] = test system: HCT-116 colon
[55] = test system: SF-539 CNS
[56] = test system: SK-OV-3 ovarian
[57] = test system: UACC-257 melanoma

In the case of O=C(Nc1cccnc1)c1ccc2ccc3ccc(C(=O)Nc4cccnc4)nc3c2n1, the GI50 [1] is reported as 0.206 µM, the TGI [1] is reported as greater than 100 µM and the GI50 [2] is reported as 0.214 µM. For the same compound, the TGI [2] was 0.553 µM, the GI50 [3] was 0.135 µM and the TGI [3] was greater than 100 µM. It also gave a GI50 [4] of 0.145 µM, a TGI [4] greater than 100 µM and a GI50 [5] of 0.135 µM. It also gave a TGI [5] greater than 100 µM, a GI50 [6] of 0.169 µM and a TGI [6] greater than 100 µM. The GI50 [7] was 0.135 µM, the TGI [7] was greater than 100 µM and the GI50 [8] was 0.195 µM. The TGI [8] was greater than 100 µM, the GI50 [9] was 0.294 µM and the TGI [9] was greater than 100 µM. It also gave a GI50 [10] of 0.0648 µM, a TGI [10] greater than 100 µM and a GI50 [11] of 0.0518 µM. It also gave a TGI [11] greater than 100 µM, a GI50 [12] of 0.132 µM and a TGI [12] greater than 100 µM. For the same compound, the GI50 [13] was 0.13 µM, the TGI [13] was greater than 100 µM and the GI50 [14] was 0.434 µM. It also gave a TGI [14] greater than 100 µM, a GI50 [15] of 0.0458 µM and a TGI [15] greater than 100 µM. The GI50 [16] was 0.125 µM, the TGI [16] was greater than 100 µM and the GI50 [17] was 0.0526 µM. The TGI [17] was greater than 100 µM, the GI50 [18] was 0.0546 µM and the TGI [18] was greater than 100 µM. The GI50 [19] was 0.18 µM, the TGI [19] was greater than 100 µM and the GI50 [20] was 0.0799 µM. It also gave a TGI [20] greater than 100 µM, a GI50 [21] greater than 100 µM and a TGI [21] greater than 100 µM. It also gave a GI50 [22] of 0.137 µM, a TGI [22] greater than 100 µM and a GI50 [23] of 0.226 µM. For the same compound, the TGI [23] was greater than 100 µM, the GI50 [24] was 0.184 µM and the TGI [24] was greater than 100 µM. For the same compound, the GI50 [25] was 0.419 µM, the TGI [25] was greater than 100 µM and the GI50 [26] was 0.128 µM. The TGI [26] was greater than 100 µM, the GI50 [27] was 0.202 µM and the TGI [27] was greater than 100 µM. It also gave a GI50 [28] of 0.0537 µM, a GI50 [29] of 0.525 µM and a TGI [29] greater than 100 µM. For the same compound, the GI50 [30] was greater than 100 µM, the TGI [30] was greater than 100 µM and the GI50 [31] was 0.242 µM. For the same compound, the TGI [31] was greater than 100 µM, the GI50 [32] was 0.37 µM and the TGI [32] was greater than 100 µM. The TGI [33] was greater than 100 µM, the GI50 [34] was 0.231 µM and the TGI [34] was greater than 100 µM. It also gave a GI50 [35] of 0.158 µM, a TGI [35] greater than 100 µM and a GI50 [36] of 0.0876 µM. For the same compound, the TGI [36] was greater than 100 µM, the GI50 [37] was 0.11 µM and the TGI [37] was 0.342 µM. The GI50 [38] was 0.225 µM, the TGI [38] was greater than 100 µM and the GI50 [39] was 0.252 µM. For the same compound, the TGI [39] was greater than 100 µM, the GI50 [40] was 0.911 µM and the TGI [40] was greater than 100 µM. It also gave a GI50 [41] of 0.324 µM, a TGI [41] greater than 100 µM and a GI50 [42] of 0.271 µM. For the same compound, the TGI [42] was greater than 100 µM, the GI50 [43] was 0.3 µM and the TGI [43] was greater than 100 µM. For the same compound, the GI50 [44] was 0.0845 µM, the TGI [44] was greater than 100 µM and the GI50 [45] was 0.273 µM. The TGI [45] was greater than 100 µM, the GI50 [46] was 0.155 µM and the TGI [46] was greater than 100 µM. It also gave a GI50 [47] of 0.0781 µM, a TGI [47] greater than 100 µM and a GI50 [48] of 0.257 µM. For the same compound, the TGI [48] was greater than 100 µM, the TGI [49] was greater than 100 µM and the GI50 [50] was 0.0613 µM. For the same compound, the TGI [50] was greater than 100 µM, the GI50 [51] was 0.205 µM and the TGI [51] was greater than 100 µM. The GI50 [52] was greater than 100 µM and the TGI [52] was greater than 100 µM.

For CCOC(=O)c1csc(NC(=O)COc2cccc(/C=C3\CSc4ccccc4C3=O)c2)n1, the GI50 [1] was 0.561 µM, the TGI [1] was 1.69 µM and the GI50 [2] was 12.1 µM. The TGI [2] was 24.5 µM, the GI50 [3] was 2.41 µM and the TGI [3] was 18.5 µM. For the same compound, the GI50 [4] was 2.64 µM, the TGI [4] was 8.99 µM and the GI50 [53] was 2.29 µM. It also gave a TGI [53] of 6.22 µM, a GI50 [5] of 1.26 µM and a TGI [5] of 18.2 µM. The GI50 [6] was 0.472 µM, the GI50 [7] was 8.58 µM and the TGI [7] was 22.6 µM. For the same compound, the GI50 [8] was 0.409 µM, the TGI [8] was 0.932 µM and the GI50 [9] was 2.29 µM. The TGI [9] was 19.9 µM, the GI50 [10] was 0.0447 µM and the TGI [10] was 0.382 µM. For the same compound, the GI50 [54] was 1.63 µM, the TGI [54] was 3.04 µM and the GI50 [11] was 2.06 µM. For the same compound, the TGI [11] was 4.62 µM, the GI50 [12] was 0.638 µM and the TGI [12] was 2.11 µM. It also gave a GI50 [13] of 1.33 µM, a TGI [13] of 3.9 µM and a GI50 [14] of 1.45 µM. It also gave a TGI [14] of 7.36 µM, a GI50 [15] of 0.608 µM and a TGI [15] of 2.18 µM. The GI50 [16] was 0.166 µM, the TGI [16] was 0.363 µM and the GI50 [17] was greater than 100 µM. The TGI [17] was greater than 100 µM, the GI50 [18] was 0.289 µM and the TGI [18] was 1.35 µM. The GI50 [19] was 0.071 µM, the TGI [19] was 0.208 µM and the GI50 [20] was 1.86 µM. For the same compound, the TGI [20] was 4.18 µM, the GI50 [21] was 0.296 µM and the TGI [21] was 1.22 µM. It also gave a GI50 [22] of 1.13 µM, a TGI [22] of 7.25 µM and a GI50 [23] of 3.87 µM. It also gave a TGI [23] of 19.1 µM, a GI50 [24] of 2.05 µM and a TGI [24] of 5.06 µM. It also gave a GI50 [25] greater than 100 µM, a TGI [25] greater than 100 µM and a GI50 [26] of 1.52 µM. It also gave a TGI [26] of 3.41 µM, a GI50 [27] of 0.105 µM and a TGI [27] of 0.57 µM. For the same compound, the GI50 [28] was 9.3 µM, the TGI [28] was 25 µM and the GI50 [29] was 0.581 µM. For the same compound, the TGI [29] was 1.49 µM, the GI50 [30] was 2.46 µM and the TGI [30] was 5.66 µM. It also gave a GI50 [31] of 0.158 µM, a TGI [31] of 0.332 µM and a GI50 [32] of 3.69 µM. It also gave a TGI [32] of 17.9 µM, a GI50 [33] of 1.04 µM and a TGI [33] of 5.42 µM. The GI50 [34] was 1.59 µM, the TGI [34] was 6.97 µM and the GI50 [35] was 0.246 µM. The TGI [35] was 1.52 µM, the GI50 [36] was greater than 100 µM and the TGI [36] was greater than 100 µM. The GI50 [37] was 2.86 µM, the TGI [37] was 11.2 µM and the GI50 [38] was 0.204 µM. It also gave a TGI [38] of 0.502 µM, a GI50 [39] of 0.908 µM and a TGI [39] of 2.44 µM. The GI50 [55] was 0.421 µM, the TGI [55] was 1.6 µM and the GI50 [40] was 0.448 µM. The TGI [40] was 0.989 µM, the GI50 [41] was 2.51 µM and the TGI [41] was 6.18 µM. The GI50 [42] was 5.04 µM, the TGI [42] was 17.3 µM and the GI50 [56] was 13.1 µM. For the same compound, the TGI [56] was 25.9 µM, the GI50 [43] was 1.38 µM and the TGI [43] was 6.58 µM. The GI50 [44] was 9.19 µM, the TGI [44] was 22.7 µM and the GI50 [45] was 0.275 µM. For the same compound, the TGI [45] was 4.45 µM, the GI50 [47] was 0.992 µM and the TGI [47] was 2.7 µM. For the same compound, the GI50 [48] was 6.79 µM, the TGI [48] was 26.7 µM and the GI50 [49] was 2.11 µM. It also gave a TGI [49] of 9.62 µM, a GI50 [50] of 0.585 µM and a TGI [50] of 1.31 µM. It also gave a GI50 [57] of 5.72 µM, a TGI [57] of 16.7 µM and a GI50 [51] of 2.61 µM. The TGI [51] was 7.02 µM, the GI50 [52] was 0.145 µM and the TGI [52] was 0.286 µM.
